The text below walks through data of patent US12364752B2, “Methods of enhancing immunogenicity of poorly immunogenic antigen-specific vaccines using oral yeast beta-glucans” (priority 2018, dated 2025).

For data set [1] the following is noted: Livingston et al. 1994; cited from earlier work.
The test system of the next data set is neuroblastoma. In words: Phase I trial of GD2/GD3 bivalent vaccine with oral beta-glucan. The settings on record: at 150 μg/m^2 s.c. with bivalent vaccine.
The test system of a further data set is Ramos tumor cells. The experiment in a line: Ramos xenografts in SCID mice, Rituxan plus oral botanical adjuvants. The data set is classed as in vivo. The settings on record: Rituxan alone at 5 μg dose.

Description for Ramos tumor cells: SCID mice (Jackson Lab, Bar Harbor ME) were first implanted subcutaneously in the flank area with Ramos tumor cells (a human lymphoma cell line; Pagel et al., Blood 108:328-36 (2006)) freshly harvested from culture and suspended in 100 μl matrigel (BD Biosciences, Billerica MA). When small palpable tumors started to appear (6-8 mm size), mice were randomly separated into treatment groups of 5 mice each. Mice were then given either oral botanical adjuvant, intravenous Rituxan mAb, or oral botanical adjuvant plus Rituxan mAb for 3 weeks. MAb was given twice a week through the tail vein. 2 mg of the tested botanical adjuvant (20 mg/ml solution or suspension in LPS-free water) was given by intragastric injection for 5 times a week. Tumor sizes (length and width) were measured twice a week with calipers. Mice were sacrificed when tumors were larger than 20 mm in length. For each botanical adjuvant, two endpoints were obtained: (1) positive anti-tumor effect [defined as statistically different from control group (treated with antibody alone)] and (2) anti-tumor index defined as (Mean tumor growth rate in mice treated with antibody alone)/(Mean tumor growth rate in mice treated with botanical adjuvant+antibody).
Description for neuroblastoma: Patients with neuroblastoma in ≥2nd complete/very good partial remission received vaccine subcutaneously (at weeks 1, 2, 3, 8, 20, 32 and 52). The bivalent vaccine contained 30 μg each of GD2 and GD3 stabilized as lactones and conjugated to the immunologic carrier protein keyhole limpet hemocyanin (KLH); and OPT-821, which was dose escalated as 50, 75, 100, and 150 μg/m^2 per s.c. injection. Oral beta-glucan administration (40 mg/kg/day, 14 days on/14 days off x 12 cycles) was started at week 6 (FIG. 14).

For QS21, the maximal tolerated dose in data set [1] was 20 µg. Further, the dose-limiting toxicity entry in the data set with neuroblastoma is listed as “no dose-limiting toxicity”.

Turning to Rituxan: rituximab mAb, the tumor growth suppressed in the data set on Ramos tumor cells was 30%.
